Assays:
HEI-OC1 cell line = experiment: Caspase-Glo 3/7 activity screen for protection from cisplatin-induced cell death; format: cell-based, mouse; settings: Mus musculus; HEI-OC1, 50 μM cisplatin, 22 hours
Procedure: An unbiased screen for compounds protective against cisplatin ototoxicity ([12], [13]) was conducted using the immortalized inner ear cell line HEI-OC1 derived from mouse cochlea ([14]). One hundred sixty-two unique small-molecule kinase-specific inhibitors were screened in dose-response mode for protection from 50 μM cisplatin. A caspase-3/7 activity assay was selected to measure apoptosis using a protocol that quantifies a luminescent product derived from the cleavage of caspase-3/7 substrate (Caspase-Glo 3/7 reagent). One hundred percent luminescence was defined by cells treated with cisplatin alone, and 0% was defined by untreated cells (Fig. 1A, fig. S1, table S1, and dataset in the Supplementary Materials).
In these screens, caspase-3 cleavage was chosen as the end point indicating cisplatin-induced apoptosis, because it allowed the inhibition of cell death to be monitored at the level of any molecular target upstream of caspase-3 cleavage in the HEI-OC1 cell line. Cells were plated at a previously optimized concentration of 1600 cells per well in medium without γ-interferon to limit proliferation and tested against 50 μM cisplatin based on a previous dose–response curve. Tested compounds were dissolved in DMSO before addition to medium with a final DMSO concentration of <0.5%. The screens are described in detail in our previous publications ([12], [13]). […]

[1] = system: P3-P4 FVB mouse cochlear explants; settings: FVB, mouse, 24 h
Procedure: Mouse cochlear explants are widely recognized as an alternative to in vivo cochlear models and pragmatic for focused drug screening ([37]). […] Medium-alone, drug-alone, and cisplatin-alone treatments were used as controls.
P3-P4 FVB mouse cochleae were dissected and maintained in culture on filter inserts in six-well plates with 1 ml of growth medium DMEM (12430-054,Gibco Life Technologies), with 1% FBS (16000-044, Gibco Life Technologies), B-27 supplement (200 μl/500 ml; 17504-44, Gibco Life Technologies), N-2 supplement (100 μl/500 ml; 17502-048, Gibco Life Technologies), and ampicillin (50 μg/ml; A5354-10ML, Sigma-Aldrich) both inside and outside the filter (Millicell, PICM03050, Millipore). […] Cochleae were imaged by confocal microscopy, two 160-μm regions from middle turns were photographed, and the number of intact HCs was counted. Two to five independent cochleae were tested for each experimental condition.

[2] = system: phosphorylated ERK (pERK); experiment: pERK immunostaining of cisplatin-treated cochlear explants; format: cell-based, mouse; settings: 3 μM, 1 hour pretreatment, 10 min 150 μM cisplatin
Excerpt: Tissue samples were then imaged via confocal microscopy.

[3] = system: human neuroblastoma and lung carcinoma cell lines; experiment: Tumor Cell Titer-Glo viability assay, interference with cisplatin tumor killing (six cell lines); format: cell-based; settings: compound at 3× protective IC50 (dabrafenib 35 μM, AZD5438 […]) + 15 μM cisplatin (200 μM for A549), 48 hours
Excerpt: In clinical settings, cisplatin is used to treat several tumor types, including neuroblastoma and lung carcinoma. […] Medium-alone–, cisplatin-alone–, and dabrafenib-alone–treated cells were used as controls, and viability was reported as percent survival compared to medium alone (Fig. 4E).
Three human neuroblastoma cell lines IMR-32, SH-SY5Y, and, SK-N-AS, as well as three human lung carcinoma cell lines SHP-77 small cell, H1155 non–small cell, and A549 non–small cell, were used to determine the compounds’ effect on cisplatin’s tumor-killing efficacy ([77]–[83]). Cell lines were purchased from the American Type Culture Collection (ATCC), and cell culture was conducted according to ATCC specifications. Neuroblastoma cell lines IMR-32 and SH-SY5Y are maintained in Dulbecco’s modified Eagle’s medium (DMEM) 1× with glucose (4.5 g/liter), L-glutamine, and sodium pyruvate (10-013-CV, Corning) with 10% fetal bovine serum (FBS) (35011132, Corning) and ampicillin (50 μg/ml; A5354-10ML, Sigma-Aldrich) added. The SK-N-AS cell line is maintained in DMEM 1× with D-glucose (4.5 g/liter), L-glutamine, and 25 mM Hepes (12430-054, Gibco) with 10% FBS, 0.1 mM nonessential amino acids, and ampicillin (50 μg/ml) added. A549 cells are maintained in F-12K medium with L-glutamine (30-2004, ATCC) with 10% FBS and ampicillin (50 μg/ml) added. […]

CC(C)(C)c1nc(-c2cccc(NS(=O)(=O)c3c(F)cccc3F)c2F)c(-c2ccnc(N)n2)s1 [dabrafenib]
IC50 (HEI-OC1 cell line): 13.5 µM
LD50 (median lethal dose) [1]: > 60 µM
effect on cisplatin-induced ERK phosphorylation in DC and IPhC regions [2]: prevented ERK activation
effect on cisplatin-induced tumor cell death [3]: no inhibitory effect
